From US20250120912A1, “SYNERGISTIC NANOMEDICINE DELIVERING TOPOISOMERASE I TOXIN (SN-38) AND INHIBITORS OF POLYNUCLEOTIDE KINASE 3'-PHOSPHATASE (PNKP) FOR ENHANCED TREATMENT OF COLORECTAL CANCER” (THE GOVERNORS OF THE UNIVERSITY OF ALBERTA, priority 2021, published 2025)
Converted amounts (≈) assume the structure as drawn. Read-outs that look alike come from different tables or passages of the source.

How the values were obtained:
[1] = In vitro drug release, dialysis-bag diffusion technique; format: physicochemical; details: dialysis MWCO 3.5 kDa, 4% albumin in water, 37° C., n=3
Method: […] The concentrations of SN-38 in collected samples were determined by UV-Vis spectrophotometer (BioTEK, Winooski, VT, USA). Detection was performed at a wavelength of 383 nm. […] All experiments were carried out in triplicate.

[2] = Water solubilized level of drug; format: physicochemical
HCT116 [3] = experiment: In vitro cytotoxicity assay (MTS)
Method: (§2) Two CRC cell lines, HCT116 and HT-29 originally purchased from ATCC were used. The cells were cultured at 37° C. in 5% CO2 in a humidified incubator in a 1:1 mixture of Dulbecco's modified Eagle medium and F12 (DMEM/F12) supplemented with 10% FBS, 50 U/mL penicillin, 50 mg/mL streptomycin, 2 mmol/L L-glutamine, 0.1 mmol/L nonessential amino acids, and 1 mmol/L sodium pyruvate.
(§3) In brief, 2×10^3 cells were plated in each well of 96-well flat-bottomed plates 24 h prior to the treatments. […] After different experimental incubation time points (24, 48, and 72 h), 20 μL of MTS reagent was added in each well and further incubated for 1 h at 37° C. before measuring the absorbance at 490 nm using BioTEK microplate reader. Each experiment was performed in quadruplicates.

[4] = literature [5]; cited from earlier work
HCT116 [5] = experiment: Western blot of cleaved PARP, γ-H2AX, cleaved caspase-3 and -7; format: cell-based, human; details: HCT116, 10 μM, 6 h
Method: (§1) In brief, 1×10^6 cells were plated in each well of 6-well plates 24 h prior to the treatments. […] The cells of 3 controls received only 0.1% DMSO, 10 μM A83, and 10 μM PM26/A83, respectively. Protein extracts for western blot analysis were prepared using commercial RIPA lysis buffer (ThermoFisher Scientific, Canada) supplemented with a cocktail of protease inhibitors (Millipore Sigma, Canada). Protein concentrations were measured using the BCA assay kit (Pierce/ThermoFisher Scientific, Canada) according to the manufacturer's protocol. Equal concentrations of protein were separated by SDS-PAGE and transferred to nitrocellulose membranes. After blocking with 5% skimmed milk in TBST (50 mM Tris-HCl, pH 7.4, 150 mM NaCl, and 0.1% Tween 20), the blots were incubated with the respective primary antibodies (cleaved caspase-3 cat #9661S, cleaved caspase-7 cat #9491S, PARP cat #9542S, phospho-histone H2A.X (Ser139) cat #9718S) and secondary antibody (HRP-linked anti-rabbit IgG cat #7074S) purchased from Cell Signaling Technology (Whitby, ON, Canada). The protein bands were detected using an enhanced chemiluminescence (ECL) based system (Pierce/ThermoFisher Scientific, Canada). The band intensities for the PNKP protein were quantified by performing optical density analysis using ImageJ software. Each experiment was carried out in triplicate.

HT-29 [6] = experiment: as above; format: cell-based, human; details: HT-29, 10 μM, 6 h
Method: as §1

HT-29 [7] = experiment: In vitro cytotoxicity assay (MTS); details: Homo sapiens
Method: as §2, §3

healthy CD-1 mice = details: up to 50 mg/kg intravenously, Cremophor EL: Ethanol or micellar formulation [20]; cited from earlier work

CCc1c2c(nc3ccc(O)cc13)-c1cc3c(c(=O)n1C2)COC(=O)[C@]3(O)CC [SN-38, (S)-4, 11-Diethyl-4,9-di-OH-1, 12-dihydro-4H-2-oxa-6,12α-diaza-dibenzo[b, h]fluorene-3,13-dione]
release of SN-38 ([1]; over 6 h): 96.46±1.43%
release of A83B4C63 ([1]; over 24 h): 99.81±0.01%
water solubilized level of SN-38 ([2]; unconjugated SN-38): 25 µg/mL
IC50 (HCT116 [3]; read-out: IC50 (relative IC50), HCT116, 24 h, as TOP1 inhibitor concentration, A83B4C63 10 μM where present, n = 4): 0.14 ± 0.04 µM
IC50 (HCT116 [3]; read-out: IC50 (relative IC50), HCT116, 48 h, as TOP1 inhibitor concentration, A83B4C63 10 μM where present, n = 4): 0.05 ± 0.01 µM
IC50 (HCT116 [3]; read-out: IC50 (relative IC50), HCT116, 72 h, as TOP1 inhibitor concentration, A83B4C63 10 μM where present, n = 4): 0.02 ± 0.01 µM
potency relative to the prodrug irinotecan [4]: 1,000 times

COc1ccccc1C(O)C1C=CC2C(=O)N(Cc3cccc4ccccc34)C(=O)C2N1Nc1ccc([N+](=O)[O-])cc1 (centres unmarked) [A83B4C63, 2-[hydroxy (2-methoxyphenyl)methyl]-6-(naphthalene-1-ylmethyl)-1-[(4-nitrophenyl)amino]-2H, 4aH, 7aH-pyrrolo[3,4-b]pyridine-5,7-dione]
apoptotic signaling (HCT116 [5]): no apoptotic signaling
apoptotic signaling (HT-29 [6]): no apoptotic signaling
release of A83B4C63 ([1]; over 6 h): 98.81±2.09%
IC50 (HT-29 [7]; HT-29, read-out: relative IC50 of PNKP inhibitor alone): > 40 µM
solubility ([2]; water, without micelles): 1 µM (≈ 0.565 µg/mL)
systemic and tissue toxicity (healthy CD-1 mice): neither systemic nor tissue toxicity
IC50 (HCT116 [3]; Homo sapiens, HCT-116, read-out: relative IC50 of PNKP inhibitor alone): > 40 µM

CCc1c2c(nc3ccc(OC(=O)N4CCC(N5CCCCC5)CC4)cc13)-c1cc3c(c(=O)n1C2)COC(=O)[C@]3(O)CC [Irinotecan, 7-ethyl-10-[4-(1-piperidino)-1-piperidino] carbonyloxycamptothecin]
IC50 (HT-29 [7]; HT-29, 24 h, read-out: IC50 (relative IC50)): 10.7 ± 4.5 µM
IC50 (HT-29 [7]; HT-29, 48 h, read-out: IC50 (relative IC50)): 11.6 ± 4.3 µM
IC50 (HT-29 [7]; HT-29, 72 h, read-out: IC50 (relative IC50)): 7.1 µM
IC50 (HCT116 [3]; Homo sapiens, HCT-116, 24 h, read-out: IC50 (relative IC50)): 7.3 ± 3.7 µM
IC50 (HCT116 [3]; Homo sapiens, HCT-116, 48 h, read-out: IC50 (relative IC50)): 3.9 ± 1.7 µM
IC50 (HCT116 [3]; Homo sapiens, HCT-116, 72 h, read-out: IC50 (relative IC50)): 6.3 ± 1.6 µM
